Results from ChEMBL document CHEMBL1201862, “PubChem BioAssay data set” (2004).
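Growth conditions: 96-well plates. Treatment: test compound, 48 hours, 5 concentrations. Analysis: linear interpolation between bracketing concentrations; unreached endpoints set to highest concentration. GI50 is the concentration that inhibits growth by half.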 Active and inactive are the calls of the source. Cut-off read from the data, not from the text of the source: active = GI50 up to about 1.1 µM and inactive = higher.

Assays:
Assay in all cases: NCI-60 cell line screen, 48 h
[1] = tested on: RXF 393
[2] = tested on: SF-268
[3] = tested on: SW-620
[4] = tested on: UACC-62
[5] = tested on: M14
[6] = tested on: DU-145
[7] = tested on: MDA-MB-435
[8] = tested on: ACHN
[9] = tested on: 786-0
[10] = tested on: SK-MEL-2
[11] = tested on: U-251
[12] = tested on: TK-10
[13] = tested on: SK-MEL-5
[14] = tested on: PC-3
[15] = tested on: A498
[16] = tested on: MOLT-4
[17] = tested on: NCI-H460
[18] = tested on: KM12
[19] = tested on: MCF7
[20] = tested on: K562

Structure (SMILES) | GI50 [1] | GI50 [2] | GI50 [3] | GI50 [4] | GI50 [5] | GI50 [6] | GI50 [7] | GI50 [8] | GI50 [9] | GI50 [10] | GI50 [11] | GI50 [12] | GI50 [13] | GI50 [14] | GI50 [15] | GI50 [16] | GI50 [17] | GI50 [18] | GI50 [19] | GI50 [20]
COc1ccc2nc3cc(Cl)ccc3c(NCCCN(CCCl)CCCl)c2c1 | 0.0107 µM (active) | 0.0164 µM (active) | 0.0116 µM (active) | 0.0156 µM (active) | 0.0408 µM (active) | 0.0121 µM (active) | 0.0323 µM (active) | < 0.01 µM (active) | 0.0101 µM (active) | 0.14 µM (active) | 0.0185 µM (active) | 0.452 µM (active) | 0.034 µM (active) | < 0.01 µM (active) | 0.0163 µM (active) | < 0.01 µM (active) | < 0.01 µM (active) | 0.052 µM (active) | < 0.01 µM (active) | 0.0123 µM (active)
Cc1ccc(C2=Nc3c(c(C)nn3-c3ccccc3)N=C(C(=O)O)C2)cc1 | > 10 µM (inactive) | > 10 µM (inactive) | > 10 µM (inactive) | > 10 µM (inactive) | > 10 µM (inactive) | > 10 µM (inactive) | > 10 µM (inactive) | > 10 µM (inactive) | > 10 µM (inactive) | > 10 µM (inactive) | > 10 µM (inactive) | > 10 µM (inactive) | > 10 µM (inactive) | > 10 µM (inactive) | > 10 µM (inactive) | > 10 µM (inactive) | > 10 µM (inactive) | > 10 µM (inactive) | > 10 µM (inactive) | > 10 µM (inactive)
COc1ccc(COCC[C@H](C)OC2OC(CO[Si](C)(C)C(C)(C)C)C(O)C(O)C2O)cc1 (stereo not given in full) | > 100 µM (inactive) | > 100 µM (inactive) | > 100 µM (inactive) | > 100 µM (inactive) | > 100 µM (inactive) | > 100 µM (inactive) | > 100 µM (inactive) | > 100 µM (inactive) | > 100 µM (inactive) | > 100 µM (inactive) | > 100 µM (inactive) | > 100 µM (inactive) | > 100 µM (inactive) | 72.9 µM (inactive) | > 100 µM (inactive) | 56.9 µM (inactive) | > 100 µM (inactive) | > 100 µM (inactive) | > 100 µM (inactive) | > 100 µM (inactive)
COC(=O)c1sc2c(c1C(=O)OC)/C(=N/c1ccc(OC)cc1)S/C2=N\c1ccc(OC)cc1 | 0.47 µM (active) | 1.55 µM (inactive) | 0.224 µM (active) | 1.45 µM (inactive) | 1.45 µM (inactive) | 0.525 µM (active) | 0.785 µM (active) | 1.24 µM (inactive) | 0.426 µM (active) | 0.624 µM (active) | 0.348 µM (active) | 1.62 µM (inactive) | 1.21 µM (inactive) | 0.462 µM (active) | 1.65 µM (inactive) | 0.248 µM (active) | 1.33 µM (inactive) | 1.22 µM (inactive) | 1.08 µM (active) | 0.389 µM (active)
COC(=O)c1cc2ccc(OC(C)=O)c(OC(C)=O)c2cn1 | 17.4 µM (inactive) | 20.8 µM (inactive) | 3.64 µM (inactive) | 2.09 µM (inactive) | 19 µM (inactive) | 24.7 µM (inactive) | 1.73 µM (inactive) | 17.1 µM (inactive) | 18.5 µM (inactive) | 18.3 µM (inactive) | 3.64 µM (inactive) | 20.6 µM (inactive) | 16.1 µM (inactive) | 20.7 µM (inactive) | 14 µM (inactive) | 4.12 µM (inactive) | 21.1 µM (inactive) | 18.7 µM (inactive) | 2.79 µM (inactive) | 2.72 µM (inactive)
CCSc1nc(N2CCOCC2)c2cn[nH]c2n1 | > 100 µM (inactive) | > 100 µM (inactive) | > 100 µM (inactive) | 20.7 µM (inactive) | > 100 µM (inactive) | > 100 µM (inactive) | 41.8 µM (inactive) | 31.7 µM (inactive) | > 100 µM (inactive) | 41.5 µM (inactive) | > 100 µM (inactive) | 47.8 µM (inactive) | 50.6 µM (inactive) | 22.1 µM (inactive) | 4.6 µM (inactive) | > 100 µM (inactive) | 49.9 µM (inactive) | 58.9 µM (inactive) | 44.9 µM (inactive) | > 100 µM (inactive)
Cc1ccc2c(n1)C(=O)c1ccccc1C2=O | 24.8 µM (inactive) | 31.3 µM (inactive) | 31.7 µM (inactive) | 20.5 µM (inactive) | > 44.5 µM (inactive) | 17.3 µM (inactive) | 18.2 µM (inactive) | 31.8 µM (inactive) | 27.6 µM (inactive) | 28.8 µM (inactive) | 27.8 µM (inactive) | 71.3 µM (inactive) | 6.84 µM (inactive) | 23.9 µM (inactive) | 31.6 µM (inactive) | 33 µM (inactive) | 15.8 µM (inactive) | 30.1 µM (inactive) | 17.3 µM (inactive) | 30.2 µM (inactive)
COc1ccc(N2CC(=O)N(C(=O)COc3ccc(OCC(=O)N4C(=O)CN(c5ccc(OC)cc5)C4=S)cc3)C2=S)cc1 | > 100 µM (inactive) | > 100 µM (inactive) | > 100 µM (inactive) | 70.8 µM (inactive) | > 100 µM (inactive) | > 100 µM (inactive) | > 100 µM (inactive) | > 100 µM (inactive) | > 100 µM (inactive) | > 100 µM (inactive) | > 100 µM (inactive) | > 100 µM (inactive) | 45.6 µM (inactive) | > 100 µM (inactive) | > 100 µM (inactive) | 30 µM (inactive) | 59.2 µM (inactive) | 39.1 µM (inactive) | 48.6 µM (inactive) | 38.8 µM (inactive)
O=[N+]([O-])c1ccc2c(c1)N=C1OC(c3c[nH]c4ccc(COc5ccccc5)cc34)C(O)=C1N2 (stereo not given) | > 100 µM (inactive) | > 100 µM (inactive) | > 100 µM (inactive) | 52 µM (inactive) | > 100 µM (inactive) | > 100 µM (inactive) | > 100 µM (inactive) | > 100 µM (inactive) | 53.8 µM (inactive) | > 100 µM (inactive) | > 100 µM (inactive) | 59.2 µM (inactive) | 37.5 µM (inactive) | > 100 µM (inactive) | > 100 µM (inactive) | 1.82 µM (inactive) | > 100 µM (inactive) | > 100 µM (inactive) | 55 µM (inactive) | 3.73 µM (inactive)
N#CCCN(CCC#N)c1ccc(/C=C2\N=C(c3ccccc3)N(c3ccccn3)C2=O)cc1 | > 100 µM (inactive) | > 100 µM (inactive) | > 100 µM (inactive) | > 100 µM (inactive) | > 100 µM (inactive) | > 100 µM (inactive) | > 100 µM (inactive) | > 100 µM (inactive) | > 100 µM (inactive) | > 100 µM (inactive) | > 100 µM (inactive) | > 100 µM (inactive) | > 100 µM (inactive) | > 100 µM (inactive) | > 100 µM (inactive) | > 100 µM (inactive) | > 100 µM (inactive) | > 100 µM (inactive) | > 100 µM (inactive) | > 100 µM (inactive)
N#CC1N(C(=O)c2ccc(F)cc2)c2ccccc2N1C(=O)c1ccc(F)cc1 | 71.6 µM (inactive) | > 100 µM (inactive) | 47.9 µM (inactive) | 37.6 µM (inactive) | 43.8 µM (inactive) | 32.9 µM (inactive) | 46.1 µM (inactive) | 38.5 µM (inactive) | 74.5 µM (inactive) | > 100 µM (inactive) | 74.5 µM (inactive) | 50.9 µM (inactive) | 23.9 µM (inactive) | 49.1 µM (inactive) | > 100 µM (inactive) | 17.3 µM (inactive) | 38.2 µM (inactive) | 91.6 µM (inactive) | 33 µM (inactive) | 28.2 µM (inactive)
CC1(C)OC2CN(C(=O)OCc3ccccc3)C(CO)C2O1 (stereo not given) | > 100 µM (inactive) | > 100 µM (inactive) | > 100 µM (inactive) | > 100 µM (inactive) | > 100 µM (inactive) | > 100 µM (inactive) | > 100 µM (inactive) | > 100 µM (inactive) | > 100 µM (inactive) | > 100 µM (inactive) | > 100 µM (inactive) | > 100 µM (inactive) | > 100 µM (inactive) | > 100 µM (inactive) | > 100 µM (inactive) | > 100 µM (inactive) | > 100 µM (inactive) | > 100 µM (inactive) | > 100 µM (inactive) | > 100 µM (inactive)
CSCCC(N)C(=O)NCCNc1ccc(NCCNC(=O)C(N)CCSC)c2c1C(=O)c1ccccc1C2=O (stereo not given) | 1.91 µM (inactive) | 0.659 µM (active) | 1 µM (active) | 1.23 µM (inactive) | 3.38 µM (inactive) | 0.798 µM (active) | 1.86 µM (inactive) | 0.456 µM (active) | 0.308 µM (active) | 3.41 µM (inactive) | 0.6 µM (active) | 2.09 µM (inactive) | 3.48 µM (inactive) | 1.84 µM (inactive) | 1.72 µM (inactive) | 0.123 µM (active) | 0.351 µM (active) | 1.27 µM (inactive) | 0.409 µM (active) | 1.42 µM (inactive)
O=C(/C=C/c1ccc(/C=C/C(=O)c2ccc(O)cc2)cc1)c1ccc(O)cc1 | > 100 µM (inactive) | > 100 µM (inactive) | > 100 µM (inactive) | > 100 µM (inactive) | > 100 µM (inactive) | > 100 µM (inactive) | > 100 µM (inactive) | > 100 µM (inactive) | 74 µM (inactive) | > 100 µM (inactive) | 16.4 µM (inactive) | > 100 µM (inactive) | > 100 µM (inactive) | > 100 µM (inactive) | > 100 µM (inactive) | > 100 µM (inactive) | > 100 µM (inactive) | > 100 µM (inactive) | > 100 µM (inactive) | > 100 µM (inactive)
